Measurements from the supplement of paper PMC10307832.

The cell lines below were run with CN1CCN(CC1)C2=CC(=C(C=C2)NC3=NC=C4C(=N3)N(C5=CC=CC=C5C(=O)N4C)C)OC [XMD8-85] + NC(=O)Nc1cc(-c2cccc(F)c2)sc1C(=O)N[C@H]1CCCNC1 [AZD7762] (partner 0.2 µM) (assay: relative viability (nuclei count vs DMSO), 5 days (fraction); higher = more cells survive). Conditions: first compound 8 µM.
Method in brief: (§1)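 Lung cancer cell lines in 1536-well plates were dosed by pin tool the day after seeding, either with one drug alone or with a fixed anchor-drug dose plus five library-drug doses (not always all listed) in √10 steps. After 5 days, cells were fixed and their nuclei stained in one step (final 0.05% Triton X-100, 1% formaldehyde, 1 ug/ml Hoechst), then counted on 4× images. Relative viability is the nuclei count in treated wells divided by that in vehicle wells. Values are medians of duplicate plates.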

Row | Cell Line | relative viability
1 | RERF-LC-KJ | 0.886

Each cell line was assayed with O=C(O)C(Cc1ccccc1[N+](=O)[O-])=NNc1nc(-c2ccc(Cl)c(Cl)c2)cs1 (mixture of isomers) [4EGI-1] + Cc1nc(NC(=O)N2CCC[C@H]2C(N)=O)sc1-c1ccnc(C(C)(C)C(F)(F)F)c1 [Alpelisib] (partner 2 µM) in the same assay as above. Conditions: first compound 0.5 µM.
Method in brief: as §1

Row | Cell Line | relative viability
2 | NCI-H727 | 0.676
3 | NCI-H838 | 1.02
4 | NCI-H1355 | 0.876
5 | NCI-H1395 | 1.19
6 | NCI-H1437 | 1.13
7 | NCI-H1651 | 0.927
8 | NCI-H1666 | 1.08
9 | NCI-H1734 | 0.686
10 | NCI-H1755 | 0.956
11 | NCI-H1793 | 0.868
12 | NCI-H1915 | 1.09
13 | NCI-H1944 | 0.86
14 | NCI-H1975 | 0.673
15 | NCI-H1993 | 0.714
16 | NCI-H2085 | 1.19
17 | NCI-H2087 | 1.17
18 | NCI-H2126 | 0.779
19 | NCI-H2170 | 0.865
20 | NCI-H2347 | 1.2
21 | NCI-H2405 | 1.16
22 | NCI-H3122 | 0.866
23 | PC-3 [JPC-3] | 1.09
24 | PC-14 | 1.05
25 | RERF-LC-KJ | 0.924

Same assay, conditions: first compound 1.581 µM

Row | Cell Line | relative viability
26 | NCI-H727 | 0.54
27 | NCI-H1355 | 0.79
28 | NCI-H1437 | 0.865
29 | NCI-H1651 | 0.914
30 | NCI-H1666 | 1.07
31 | NCI-H1734 | 0.599
32 | NCI-H1755 | 1.03
33 | NCI-H1793 | 0.883
34 | NCI-H1915 | 0.808
35 | NCI-H1975 | 0.81
36 | NCI-H1993 | 0.666
37 | NCI-H2085 | 1
38 | NCI-H2087 | 1.09
39 | NCI-H2126 | 0.716
40 | NCI-H2170 | 0.803
41 | NCI-H2347 | 0.953
42 | NCI-H2405 | 0.664
43 | NCI-H3122 | 0.718
44 | PC-3 [JPC-3] | 0.97

Same assay, conditions: first compound 5 µM

Row | Cell Line | relative viability
45 | NCI-H727 | 0.625
46 | NCI-H838 | 1.06
47 | NCI-H1355 | 0.772
48 | NCI-H1395 | 1.52
49 | NCI-H1437 | 0.84
50 | NCI-H1651 | 0.913
51 | NCI-H1666 | 1.15
52 | NCI-H1734 | 0.753
53 | NCI-H1755 | 0.88
54 | NCI-H1793 | 0.679
55 | NCI-H1915 | 0.982
56 | NCI-H1944 | 0.796
57 | NCI-H1975 | 0.702
58 | NCI-H1993 | 0.72
59 | NCI-H2085 | 1.03
60 | NCI-H2087 | 0.985
61 | NCI-H2126 | 0.749
62 | NCI-H2170 | 0.849
63 | NCI-H2347 | 1.04
64 | NCI-H2405 | 0.95
65 | NCI-H3122 | 0.792
66 | PC-3 [JPC-3] | 0.979
67 | PC-14 | 0.906
68 | RERF-LC-KJ | 0.728

Same assay, conditions: first compound 15.81 µM

Row | Cell Line | relative viability
69 | NCI-H727 | 0.478
70 | NCI-H838 | 0.907
71 | NCI-H1355 | 0.477
72 | NCI-H1395 | 1.07
73 | NCI-H1437 | 0.845
74 | NCI-H1651 | 0.906
75 | NCI-H1666 | 0.403
76 | NCI-H1734 | 0.719
77 | NCI-H1755 | 0.851
78 | NCI-H1793 | 0.668
79 | NCI-H1915 | 1.07
80 | NCI-H1944 | 0.642
81 | NCI-H1975 | 0.627
82 | NCI-H1993 | 0.675
83 | NCI-H2085 | 0.831
84 | NCI-H2087 | 0.839
85 | NCI-H2126 | 0.67
86 | NCI-H2170 | 0.768
87 | NCI-H2347 | 0.965
88 | NCI-H2405 | 0.918
89 | NCI-H3122 | 0.775
90 | RERF-LC-KJ | 0.677

Same assay, conditions: first compound 50 µM

Row | Cell Line | relative viability
91 | NCI-H727 | 0.366
92 | NCI-H838 | 0.524
93 | NCI-H1355 | 0.504
94 | NCI-H1395 | 0.685
95 | NCI-H1437 | 0.153
96 | NCI-H1651 | 0.556
97 | NCI-H1666 | 0.212
98 | NCI-H1734 | 0.491
99 | NCI-H1755 | 0.445
100 | NCI-H1793 | 0.577
101 | NCI-H1915 | 0.695
102 | NCI-H1944 | 0.672
103 | NCI-H1975 | 0.469
104 | NCI-H1993 | 0.659
105 | NCI-H2085 | 0.626
106 | NCI-H2087 | 0.221
107 | NCI-H2126 | 0.739
108 | NCI-H2170 | 0.344
109 | NCI-H2347 | 0.978
110 | NCI-H2405 | 0.526
111 | NCI-H3122 | 0.646
112 | PC-3 [JPC-3] | 0.884
113 | PC-14 | 0.941
114 | RERF-LC-KJ | 0.659

Each cell line was assayed with CN1CCN(CC1)C2=CC(=C(C=C2)NC3=NC=C4C(=N3)N(C5=CC=CC=C5C(=O)N4C)C)OC [XMD8-85] + COc1cc2c(Oc3ccc(NC(=O)C4(C(=O)Nc5ccc(F)cc5)CC4)cc3F)ccnc2cc1OCCCN1CCOCC1 [Foretinib] (partner 0.25 µM) in the same assay as above. Conditions: first compound 0.08 µM.
Method in brief: as §1

Row | Cell Line | relative viability
115 | NCI-H727 | 0.895
116 | NCI-H838 | 0.941
117 | NCI-H1355 | 1.02
118 | NCI-H1395 | 1.03
119 | NCI-H1437 | 1.3
120 | NCI-H1651 | 0.857
121 | NCI-H1666 | 0.991
122 | NCI-H1734 | 0.858
123 | NCI-H1755 | 0.873
124 | NCI-H1915 | 1.16
125 | NCI-H1975 | 1.05
126 | NCI-H1993 | 0.742
127 | NCI-H2085 | 0.902
128 | NCI-H2087 | 1.34
129 | NCI-H2126 | 1.07
130 | NCI-H2170 | 1.04
131 | NCI-H2347 | 0.75
132 | NCI-H2405 | 1.07
133 | NCI-H3122 | 1.04
134 | PC-3 [JPC-3] | 1.05
135 | PC-14 | 0.953
136 | RERF-LC-KJ | 0.84

Same assay, conditions: first compound 0.253 µM

Row | Cell Line | relative viability
137 | NCI-H727 | 1.05
138 | NCI-H838 | 1
139 | NCI-H1355 | 1.01
140 | NCI-H1395 | 0.974
141 | NCI-H1437 | 1.28
142 | NCI-H1651 | 0.769
143 | NCI-H1666 | 0.988
144 | NCI-H1734 | 0.853
145 | NCI-H1755 | 0.921
146 | NCI-H1793 | 0.668
147 | NCI-H1915 | 1.1
148 | NCI-H1944 | 1.04
149 | NCI-H1975 | 0.925
150 | NCI-H1993 | 0.894
151 | NCI-H2085 | 0.854
152 | NCI-H2087 | 1.11
153 | NCI-H2126 | 1.03
154 | NCI-H2170 | 1.01
155 | NCI-H2347 | 0.836
156 | NCI-H2405 | 1.08
157 | PC-3 [JPC-3] | 1.04
158 | PC-14 | 0.826
159 | RERF-LC-KJ | 0.762

Same assay, conditions: first compound 0.8 µM

Row | Cell Line | relative viability
160 | NCI-H727 | 0.823
161 | NCI-H838 | 1.08
162 | NCI-H1355 | 0.977
163 | NCI-H1395 | 1.05
164 | NCI-H1437 | 1.32
165 | NCI-H1651 | 0.712
166 | NCI-H1666 | 0.963
167 | NCI-H1734 | 0.896
168 | NCI-H1755 | 0.88
169 | NCI-H1793 | 0.681
170 | NCI-H1915 | 1.16
171 | NCI-H1944 | 0.898
172 | NCI-H1975 | 0.917
173 | NCI-H1993 | 0.806
174 | NCI-H2085 | 0.823
175 | NCI-H2087 | 1.32
176 | NCI-H2126 | 1.13
177 | NCI-H2170 | 0.985
178 | NCI-H2347 | 0.829
179 | NCI-H2405 | 1.07
180 | NCI-H3122 | 1.07
181 | PC-3 [JPC-3] | 1.04
182 | PC-14 | 0.881
183 | RERF-LC-KJ | 0.877

Same assay, conditions: first compound 2.53 µM

Row | Cell Line | relative viability
184 | NCI-H727 | 0.553
185 | NCI-H838 | 0.91
186 | NCI-H1355 | 0.878
187 | NCI-H1395 | 0.925
188 | NCI-H1437 | 1.08
189 | NCI-H1651 | 0.799
190 | NCI-H1666 | 0.893
191 | NCI-H1734 | 0.842
192 | NCI-H1755 | 0.97
193 | NCI-H1793 | 0.783
194 | NCI-H1915 | 1.02
195 | NCI-H1944 | 0.836
196 | NCI-H1975 | 0.779
197 | NCI-H1993 | 0.706
198 | NCI-H2085 | 0.751
199 | NCI-H2087 | 1.15
200 | NCI-H2126 | 0.996
201 | NCI-H2170 | 1.02
202 | NCI-H2347 | 1.07
203 | NCI-H2405 | 1.04
204 | NCI-H3122 | 1.04
205 | PC-3 [JPC-3] | 1.19
206 | PC-14 | 1.03
207 | RERF-LC-KJ | 0.877

Same assay, conditions: first compound 8 µM

Row | Cell Line | relative viability
208 | NCI-H727 | 0.693
209 | NCI-H838 | 0.569
210 | NCI-H1355 | 0.811
211 | NCI-H1395 | 0.8
212 | NCI-H1437 | 0.867
213 | NCI-H1651 | 0.631
214 | NCI-H1666 | 0.886
215 | NCI-H1734 | 0.629
216 | NCI-H1755 | 0.783
217 | NCI-H1793 | 0.594
218 | NCI-H1915 | 0.83
219 | NCI-H1944 | 0.571
220 | NCI-H1975 | 0.561
221 | NCI-H1993 | 0.61
222 | NCI-H2085 | 0.563
223 | NCI-H2087 | 0.682
224 | NCI-H2126 | 0.935
225 | NCI-H2170 | 0.965
226 | NCI-H2347 | 0.758
227 | NCI-H2405 | 0.984
228 | NCI-H3122 | 0.947
229 | PC-3 [JPC-3] | 0.912
230 | PC-14 | 0.851
231 | RERF-LC-KJ | 0.849
